The supplement of paper PMC10307832

Legend:
Test in all cases: relative viability (nuclei count vs DMSO), 5 days (fraction); higher = more cells survive
R406 + Olaparib = compound: COc1cc(Nc2ncc(F)c(Nc3ccc4c(n3)NC(=O)C(C)(C)O4)n2)cc(OC)c1OC [R406] + O=C(c1cc(Cc2n[nH]c(=O)c3ccccc23)ccc1F)N1CCN(C(=O)C2CC2)CC1 [Olaparib] (partner 8 µM)
In short: (§1)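 Relative viability equals treated-well nuclei counts divided by vehicle-well nuclei counts. Counts came from 4× images of lung cancer cell lines grown in 1536-well plates for 5 days after pin-tool dosing on the day after seeding. Dosing used one drug alone or a fixed anchor-drug dose plus five library-drug doses (not always all listed) in √10 steps, and values are medians of duplicate plates.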

Daporinad + Vorinostat = compound: O=C(/C=C/c1cccnc1)NCCCCC1CCN(C(=O)c2ccccc2)CC1 [Daporinad] + O=C(CCCCCCC(=O)Nc1ccccc1)NO [Vorinostat] (partner 1 µM)
In short: as §1

R406 + Pemetrexed = compound: COc1cc(Nc2ncc(F)c(Nc3ccc4c(n3)NC(=O)C(C)(C)O4)n2)cc(OC)c1OC [R406] + Nc1nc2[nH]cc(CCc3ccc(C(=O)N[C@@H](CCC(=O)O)C(=O)O)cc3)c2c(=O)[nH]1 [Pemetrexed] (partner 0.2 µM)
In short: as §1

Daporinad + Pictilisib = compound: O=C(/C=C/c1cccnc1)NCCCCC1CCN(C(=O)c2ccccc2)CC1 [Daporinad] + CS(=O)(=O)N1CCN(Cc2cc3nc(-c4cccc5[nH]ncc45)nc(N4CCOCC4)c3s2)CC1 [Pictilisib] (partner 1 µM)
In short: as §1

Cell Line	relative viability (R406 + Olaparib; first compound 0.08 µM)	relative viability (R406 + Olaparib; first compound 0.253 µM)	relative viability (R406 + Olaparib; first compound 0.8 µM)	relative viability (R406 + Olaparib; first compound 2.53 µM)	relative viability (R406 + Olaparib; first compound 8 µM)	relative viability (Daporinad + Vorinostat; first compound 0.0005 µM)	relative viability (Daporinad + Vorinostat; first compound 0.001581 µM)	relative viability (Daporinad + Vorinostat; first compound 0.005 µM)	relative viability (Daporinad + Vorinostat; first compound 0.01581 µM)	relative viability (R406 + Pemetrexed; first compound 0.08 µM)	relative viability (R406 + Pemetrexed; first compound 0.253 µM)	relative viability (R406 + Pemetrexed; first compound 0.8 µM)	relative viability (R406 + Pemetrexed; first compound 2.53 µM)	relative viability (R406 + Pemetrexed; first compound 8 µM)	relative viability (Daporinad + Pictilisib; first compound 0.0005 µM)	relative viability (Daporinad + Pictilisib; first compound 0.001581 µM)	relative viability (Daporinad + Pictilisib; first compound 0.005 µM)	relative viability (Daporinad + Pictilisib; first compound 0.01581 µM)
LXF-289	1.08	1.18	1.12	1.02	0.219	0.692	0.937	0.794	0.96	0.874	0.912	0.908	0.887	0.725	0.714	0.862	0.879	0.859
NCI-H23	0.277	0.271	0.236	0.263	0.139	0.624	0.251	0.586	0.2	0.565	0.806	0.782	0.17	0.248	0.59	0.502	0.446	0.347
NCI-H322M	0.654	0.695	0.826	0.641	0.488	0.891	0.877	0.831	0.669	0.532	0.596	0.63	0.466	0.396	0.482	0.55	0.575	0.52
NCI-H522	0.518	0.578	0.713	0.636	0.511	0.995	1.13	0.946	0.544	0.832	1.04	1.09	0.937	0.747				
NCI-H727	0.533	0.67	0.666	0.75	0.663	1.11	1.25	1.45	1.03						0.359	0.354	0.414	0.284
NCI-H1299	0.972	0.986	0.957	1.05	0.731										0.736	0.809	0.839	0.739
NCI-H1563										0.707	0.929	0.794	0.659	0.444	0.639	0.642	0.605	0.701
NCI-H1648	0.758	1.06	0.906	0.886	0.884	0.439	0.333	0.424	0.41	0.749	0.727	0.754	0.675	0.653				
NCI-H1703	0.298	0.474	0.355	0.277	0.124										0.236	0.283	0.259	0.265
NCI-H1792	0.456	0.402	0.491	0.189	0.194					0.838	1.07	1.39	0.0474	0.194	0.212	0.317	0.25	0.377
NCI-H2342	0.395	0.415	0.447	0.355	0.439	0.806	0.791	0.695	0.815	0.737	0.835	0.862	0.749	0.774				
SW 900	0.956	0.855	0.57	0.492	0.115	0.461		0.86	0.3	0.486	0.486	0.532	0.129	0.0856				
